Results published in patent US8697739B2, “Bicyclic acetyl-CoA carboxylase inhibitors and uses thereof” (Novartis AG, priority 2010, dated 2014).

Target: T1, human acetyl-CoA carboxylase 2 (ACC2) (Homo sapiens, UniProt O00763)
T1 construct: The cDNA encoding amino acids 144 to 2458 of human acetyl-CoA carboxylase 2; made in house; host or cells: Sf9 insect cells (baculovirus, pFastBac1)
Test: Acetyl-CoA carboxylase enzyme assay (malonyl-CoA formation by LC/MS/MS)
Format: biochemical
Conditions: recombinant human ACC2 (aa 144-2458); read-out: IC50 ACC2
Summary of the method: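 Malonyl-CoA formation was read by LC/MS/MS MRM against a [13C3]-malonyl-CoA internal standard, after acetic acid quench. The enzyme was baculovirus/Sf9-expressed human ACC2 residues 144–2458, given 15 minutes room-temperature compound preincubation in HEPES pH 7.5 buffer with MgCl2, citrate and DTT. Substrate solution held 50 μM acetyl-CoA, 120 μM ATP and 2 mM KHCO3.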

T1 sequence (O00763 144-2458): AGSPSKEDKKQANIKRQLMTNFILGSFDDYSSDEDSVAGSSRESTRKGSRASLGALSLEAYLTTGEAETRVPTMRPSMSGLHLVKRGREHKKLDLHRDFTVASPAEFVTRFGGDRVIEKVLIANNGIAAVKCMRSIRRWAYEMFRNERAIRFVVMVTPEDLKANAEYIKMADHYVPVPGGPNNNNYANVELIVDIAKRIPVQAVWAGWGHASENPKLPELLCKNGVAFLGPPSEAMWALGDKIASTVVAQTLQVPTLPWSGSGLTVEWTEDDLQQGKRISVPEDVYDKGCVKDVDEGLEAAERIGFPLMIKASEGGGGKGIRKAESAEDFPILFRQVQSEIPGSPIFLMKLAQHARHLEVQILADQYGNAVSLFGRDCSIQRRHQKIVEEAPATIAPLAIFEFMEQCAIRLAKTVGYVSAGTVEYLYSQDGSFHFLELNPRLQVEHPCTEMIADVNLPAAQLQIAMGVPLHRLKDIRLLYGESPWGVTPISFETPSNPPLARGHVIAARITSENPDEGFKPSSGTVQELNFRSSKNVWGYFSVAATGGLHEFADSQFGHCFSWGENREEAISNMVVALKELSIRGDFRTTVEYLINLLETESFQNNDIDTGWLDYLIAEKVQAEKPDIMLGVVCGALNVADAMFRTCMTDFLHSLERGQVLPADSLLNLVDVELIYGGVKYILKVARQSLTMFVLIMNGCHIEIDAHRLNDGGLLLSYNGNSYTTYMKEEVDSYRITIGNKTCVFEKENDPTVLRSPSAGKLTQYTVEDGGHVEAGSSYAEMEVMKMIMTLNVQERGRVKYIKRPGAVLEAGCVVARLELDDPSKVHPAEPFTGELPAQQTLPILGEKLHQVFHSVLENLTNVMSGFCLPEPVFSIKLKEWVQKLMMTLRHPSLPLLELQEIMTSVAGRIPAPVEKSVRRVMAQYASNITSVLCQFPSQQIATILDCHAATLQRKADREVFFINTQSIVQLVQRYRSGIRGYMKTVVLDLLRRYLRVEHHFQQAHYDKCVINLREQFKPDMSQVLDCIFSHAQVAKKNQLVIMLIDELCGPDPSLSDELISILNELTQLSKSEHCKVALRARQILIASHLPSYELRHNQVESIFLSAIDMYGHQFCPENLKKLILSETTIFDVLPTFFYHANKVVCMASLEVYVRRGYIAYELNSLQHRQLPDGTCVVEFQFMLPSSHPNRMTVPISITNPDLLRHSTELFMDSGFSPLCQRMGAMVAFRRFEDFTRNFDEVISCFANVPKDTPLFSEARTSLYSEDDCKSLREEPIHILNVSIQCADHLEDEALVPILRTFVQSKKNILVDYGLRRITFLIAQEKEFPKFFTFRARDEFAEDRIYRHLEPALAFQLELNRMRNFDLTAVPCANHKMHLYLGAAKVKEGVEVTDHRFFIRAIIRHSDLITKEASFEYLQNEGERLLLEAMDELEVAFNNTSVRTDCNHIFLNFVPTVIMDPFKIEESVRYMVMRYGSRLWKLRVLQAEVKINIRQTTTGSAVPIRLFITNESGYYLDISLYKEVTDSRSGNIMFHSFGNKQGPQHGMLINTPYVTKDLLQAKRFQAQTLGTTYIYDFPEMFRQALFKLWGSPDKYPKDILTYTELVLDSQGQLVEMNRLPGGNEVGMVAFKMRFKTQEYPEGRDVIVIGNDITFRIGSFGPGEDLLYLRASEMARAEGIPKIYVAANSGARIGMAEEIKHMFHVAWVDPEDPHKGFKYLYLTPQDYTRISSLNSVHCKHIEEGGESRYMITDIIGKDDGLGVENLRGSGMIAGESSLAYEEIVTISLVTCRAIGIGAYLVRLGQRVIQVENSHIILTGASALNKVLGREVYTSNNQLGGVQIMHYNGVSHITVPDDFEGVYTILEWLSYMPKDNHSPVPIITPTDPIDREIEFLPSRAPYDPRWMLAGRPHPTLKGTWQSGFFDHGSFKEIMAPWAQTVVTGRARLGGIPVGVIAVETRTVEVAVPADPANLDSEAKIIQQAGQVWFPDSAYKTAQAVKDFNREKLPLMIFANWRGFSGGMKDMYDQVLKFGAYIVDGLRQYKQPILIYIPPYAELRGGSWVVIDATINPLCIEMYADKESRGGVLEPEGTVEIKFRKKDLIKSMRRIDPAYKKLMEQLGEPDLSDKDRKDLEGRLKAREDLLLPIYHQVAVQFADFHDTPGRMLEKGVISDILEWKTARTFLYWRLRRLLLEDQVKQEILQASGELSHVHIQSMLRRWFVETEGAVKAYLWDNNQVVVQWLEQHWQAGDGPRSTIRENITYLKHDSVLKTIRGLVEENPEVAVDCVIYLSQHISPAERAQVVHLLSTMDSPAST

SMILES | IC50 [nM]
Cc1nc2ccc(S(=O)(=O)N[C@H]3CC[C@H](C(=O)N4CCOCC4)CC3)cc2s1 [Example 658, 2-methyl-N-((1r,4r)-4-(morpholine-4-carbonyl)cyclohexyl)benzo[d]thiazole-6-sulfonamide] | 71700
C[C@@H](NC(=O)[C@H]1CC[C@H](NS(=O)(=O)c2ccc3[nH]c(=O)oc3c2)CC1)c1ccc(F)cc1 [Example 659, (1r,4R)-N-((R)-1-(4-fluorophenyl)ethyl)-4-(2-oxo-2,3-dihydrobenzo[d]oxazole-6-sulfonamido)cyclohexanecarboxamide] | 378
Cc1nc2ccc(S(=O)(=O)N[C@H]3CC[C@H](C(=O)N[C@H](C)c4ccc(F)cc4)CC3)cc2s1 [Example 660, (1r,4R)-N-((R)-1-(4-fluorophenyl)ethyl)-4-(2-methylbenzo[d]thiazole-6-sulfonamido)cyclohexanecarboxamide] | 242
C[C@@H](NC(=O)[C@H]1CC[C@H](NS(=O)(=O)c2ccc3c(c2)OCO3)CC1)c1ccc(F)cc1 [Example 661, (1r,4R)-4-(benzo[d][1,3]dioxole-5-sulfonamido)-N-((R)-1-(4-fluorophenyl)ethyl)cyclohexanecarboxamide] | 733
C[C@@H](NC(=O)[C@H]1CC[C@H](NC(=O)c2ccc3[nH]c(-c4ccccc4)nc3c2)CC1)c1ccc(F)cc1 [Example 662, N-((1R,4r)-4-((R)-1-(4-fluorophenyl)ethylcarbamoyl)cyclohexyl)-2-phenyl-1H-benzo[d]imidazole-5-carboxamide] | 32500
Cn1ccc2cc(S(=O)(=O)N[C@H]3CC[C@H](C(=O)N[C@H](CO)c4ccccc4)CC3)ccc21 [Example 670, (1r,4S)-N-((S)-2-hydroxy-1-phenylethyl)-4-(1-methyl-1H-indole-5-sulfonamido)cyclohexanecarboxamide] | 66
Cn1ccc2cc(S(=O)(=O)N[C@H]3CC[C@H](C(=O)N[C@@H](CO)c4ccccc4)CC3)ccc21 [Example 671, (1r,4R)-N-((R)-2-hydroxy-1-phenylethyl)-4-(1-methyl-1H-indole-5-sulfonamido)cyclohexanecarboxamide] | > 35000
Cn1ccc2cc(S(=O)(=O)N[C@H]3CC[C@H](C(=O)N[C@H]4CCCCNC4=O)CC3)ccc21 [Example 672, (1r,4S)-4-(1-methyl-1H-indole-5-sulfonamido)-N-((S)-2-oxoazepan-3-yl)cyclohexanecarboxamide] | 639
Cn1ccc2cc(S(=O)(=O)N[C@H]3CC[C@H](C(=O)N[C@H](CCO)c4ccccc4)CC3)ccc21 [Example 673, (1r,4R)-N-((R)-3-hydroxy-1-phenylpropyl)-4-(1-methyl-1H-indole-5-sulfonamido)cyclohexanecarboxamide] | 138
COC[C@@H](NC(=O)[C@H]1CC[C@H](NS(=O)(=O)c2ccc3c(ccn3C)c2)CC1)c1ccccc1 [Example 674, (1r,4S)-N-((S)-2-methoxy-1-phenylethyl)-4-(1-methyl-1H-indole-5-sulfonamido)cyclohexanecarboxamide] | 771

Results, then the molecule that gave them:

IC50 [nM] | SMILES
869 | COC(=O)c1ccc(-c2nc3cc(S(=O)(=O)N[C@H]4CC[C@H](c5nnc(C(C)(C)C)o5)CC4)ccc3[nH]2)cc1 [Example 652, methyl 4-(5-(N-((1r,4r)-4-(5-tert-butyl-1,3,4-oxadiazol-2-yl)cyclohexyl)sulfamoyl)-1H-benzo[d]imidazol-2-yl)benzoate]
2030 | CC(C)(C)c1nnc([C@H]2CC[C@H](NS(=O)(=O)c3ccc4[nH]c(-c5cccnc5)nc4c3)CC2)o1 [Example 653, N-((1r,4r)-4-(5-tert-butyl-1,3,4-oxadiazol-2-yl)cyclohexyl)-2-(pyridin-3-yl)-1H-benzo[d]imidazole-5-sulfonamide]
158 | CC(C)(C)c1nnc([C@H]2CC[C@H](NS(=O)(=O)c3ccc4[nH]c(Nc5cccnc5)nc4c3)CC2)o1 [Example 654, N-((1r,4r)-4-(5-tert-butyl-1,3,4-oxadiazol-2-yl)cyclohexyl)-2-(pyridin-3-ylamino)-1H-benzo[d]imidazole-5-sulfonamide]
141 | CC(C)(C)c1nnc([C@H]2CC[C@H](NS(=O)(=O)c3ccc4[nH]c(-c5ccc(N6CCNCC6)cc5)nc4c3)CC2)o1 [Example 655, N-((1r,4r)-4-(5-tert-butyl-1,3,4-oxadiazol-2-yl)cyclohexyl)-2-(4-(piperazin-1-yl)phenyl)-1H-benzo[d]imidazole-5-sulfonamide]
870 | CC(C)(C)c1nnc([C@H]2CC[C@H](NS(=O)(=O)c3ccc4[nH]c(-c5ccc(C(=O)O)cc5)nc4c3)CC2)o1 [Example 656, 4-(5-(N-((1r,4r)-4-(5-tert-butyl-1,3,4-oxadiazol-2-yl)cyclohexyl)sulfamoyl)-1H-benzo[d]imidazol-2-yl)benzoic acid]
> 35000 | Cc1nc2cc(S(=O)(=O)N[C@H]3CC[C@H](c4nnc(C(C)(C)C)o4)CC3)ccc2n1Cc1ccccc1 [Example 657, 1-benzyl-N-((1r,4r)-4-(5-tert-butyl-1,3,4-oxadiazol-2-yl)cyclohexyl)-2-methyl-1H-benzo[d]imidazole-5-sulfonamide]
252 | Cc1nc2cc(S(=O)(=O)N[C@H]3CC[C@H](C(=O)N[C@H](C)c4ccc(F)cc4)CC3)ccc2[nH]1 [Example 663, (1r,4R)-N-((R)-1-(4-fluorophenyl)ethyl)-4-(2-methyl-1H-benzo[d]imidazole-5-sulfonamido)cyclohexanecarboxamide]
54 | C[C@@H]1CN(C(=O)[C@H]2CC[C@H](NS(=O)(=O)c3ccc4[nH]c(-c5ccccc5)nc4c3)CC2)C[C@H](C)O1 [Example 664, N-((1R,4r)-4-((2S,6R)-2,6-dimethylmorpholine-4-carbonyl)cyclohexyl)-2-phenyl-1H-benzo[d]imidazole-5-sulfonamide]
40 | C[C@H]1C[C@H](C)CN(C(=O)[C@H]2CC[C@H](NS(=O)(=O)c3ccc4[nH]c(-c5ccccc5)nc4c3)CC2)C1 [Example 665, N-((1S,4r)-4-((3S,5S)-3,5-dimethylpiperidine-1-carbonyl)cyclohexyl)-2-phenyl-1H-benzo[d]imidazole-5-sulfonamide]
30 | C[C@@H]1C[C@H](C)CN(C(=O)[C@H]2CC[C@H](NS(=O)(=O)c3ccc4[nH]c(-c5ccccc5)nc4c3)CC2)C1 [Example 666, N-((1R,4r)-4-((3S,5R)-3,5-dimethylpiperidine-1-carbonyl)cyclohexyl)-2-phenyl-1H-benzo[d]imidazole-5-sulfonamide]
615 | CCOC(=O)Cc1nc2cc(S(=O)(=O)N[C@H]3CC[C@H](C(=O)N[C@H](C)c4ccc(F)cc4)CC3)ccc2[nH]1 [Example 667, ethyl 2-(5-(N-((1R,4r)-4-((R)-1-(4-fluorophenyl)ethylcarbamoyl)cyclohexyl)sulfamoyl)-1H-benzo[d]imidazol-2-yl)acetate]
124 | C[C@@H](NC(=O)[C@H]1CC[C@H](NS(=O)(=O)c2ccc3[nH]c(CC(=O)O)nc3c2)CC1)c1ccc(F)cc1 [Example 668, 2-(5-(N-((1R,4r)-4-((R)-1-(4-fluorophenyl)ethylcarbamoyl)cyclohexyl)sulfamoyl)-1H-benzo[d]imidazol-2-yl)acetic acid]
362 | COC1CCN(C(=O)[C@H]2CC[C@H](NS(=O)(=O)c3ccc4[nH]c(-c5ccccc5)nc4c3)CC2)CC1 [Example 669, N-((1r,4r)-4-(4-methoxypiperidine-1-carbonyl)cyclohexyl)-2-phenyl-1H-benzo[d]imidazole-5-sulfonamide]
